Assay results reported in the supplement of paper PMC12420376.

How the values were obtained:
[1] = test system: OVCAR8; assay: drug sensitivity score (DSS2) on cancer cell count; higher = more sensitive; extreme values may be limits of the assay; details: 72 h
How it was run: (§1)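 Ovarian cancer cells were cultured either alone or directly mixed 1:1 with lung or skin fibroblasts and plated onto 384-well plates acoustically pre-spotted with 528 approved and investigational compounds at 5 concentrations for 72 h of treatment. After fixation, cells were immunostained for CK8/18 with Hoechst and imaged at 10× across 4 fields to count cancer cells. Responses were fitted with 4-parameter logistic curves, and from these fits a drug sensitivity score was derived in Breeze, with screen quality assessed by Z'.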

[2] = test system: KURAMOCHI; assay: as above; details: 72 h
How it was run: as §1

[3] = co-cultured fibroblast: BJHTERT
[4] = co-cultured fibroblast: none (monoculture)

Row | Structure (SMILES) | drug sensitivity score [1, 3] | drug sensitivity score ([1]; co-cultured fibroblast: WI38) | drug sensitivity score [1, 4] | drug sensitivity score [2, 3] | drug sensitivity score ([2]; co-cultured fibroblast: WI38) | drug sensitivity score [2, 4]
1 | CC(C)(C)c1cnc(CSc2cnc(NC(=O)C3CCNCC3)s2)o1 [SNS-032] | 28.3 DSS | 21 DSS | 24.3 DSS | 21.1 DSS | 18.1 DSS | 25.5 DSS
2 | Cn1cc(C[C@@H](N)C(=O)O)c2ccccc21 [1-methyl-D-tryptophan] | 0 DSS | 0 DSS | 0 DSS | 0 DSS | 0 DSS | 10.3 DSS
3 | NC(=O)NO [Hydroxyurea] | 1.8 DSS | 7.3 DSS | 7.7 DSS | 5.9 DSS | 7.3 DSS | 6.3 DSS
4 | O=C(O)c1ccc2c(c1)nc(Nc1cccc(Cl)c1)c1ccncc12 [Silmitasertib] | 2 DSS | 0 DSS | 3 DSS | 4.1 DSS | 3.4 DSS | 0.8 DSS
5 | C[C@H](Nc1ncnc2[nH]cnc12)c1cc2ccc(F)cc2nc1-c1ccccn1 [AMG319] | 0 DSS | 5.8 DSS | 0 DSS | 1.2 DSS | 0 DSS | 0 DSS
6 | Cc1ccc(C(=O)Nc2ccc(Oc3cc4cnn(C)c4cc3-c3cn[nH]c3)c(F)c2)c(=O)n1-c1ccc(F)cc1 [Merestinib] | 0 DSS | 0 DSS | 0.1 DSS | 0 DSS | 1.5 DSS | 1.5 DSS
7 | CNC(=O)c1ccc(N2C(=S)N(c3ccc(C#N)c(C(F)(F)F)c3)C(=O)C2(C)C)cc1F [Enzalutamide] | 0 DSS | 0 DSS | 2.2 DSS | 0 DSS | 0 DSS | 1.3 DSS
8 | Cc1nc(NC(=O)N2CCC[C@H]2C(N)=O)sc1-c1ccnc(C(C)(C)C(F)(F)F)c1 [Alpelisib] | 0 DSS | 0 DSS | 0.4 DSS | 0 DSS | 0 DSS | 0 DSS
9 | CNC(=O)c1ccc(-c2cnc3ncc(Cc4ccc5ncccc5c4)n3n2)cc1F [Capmatinib] | 0 DSS | 0 DSS | 0 DSS | 0 DSS | 0 DSS | 0 DSS
10 | CCOC(=O)CCNc1cc(N2CCc3ccccc3CC2)nc(-c2ccccn2)n1 [GSK-J4] | 1.6 DSS | 0.3 DSS | 4.2 DSS | 3.1 DSS | 2.7 DSS | 10.5 DSS
11 | CN(C)CC#Cc1ccc(OCCCc2sc(N3CCc4cccc(C(=O)Nc5nc6ccccc6s5)c4C3)nc2C(=O)O)c(F)c1 | 4.3 DSS | 0 DSS | 0.7 DSS | 4.1 DSS | 6.1 DSS | 6.9 DSS
12 | Nc1nc2[nH]cc(CCc3ccc(C(=O)N[C@@H](CCC(=O)O)C(=O)O)cc3)c2c(=O)[nH]1 [Pemetrexed] | 16.4 DSS | 19.3 DSS | 25.5 DSS | 10.1 DSS | 16 DSS | 13.6 DSS
13 | CN(C)CCCOc1ccc(-c2ccc3ncc4c(c3c2)n(C2CCOCC2)c(=O)n4C)cn1 [AZD0156] | 6.4 DSS | 6.8 DSS | 0.5 DSS | 2.5 DSS | 1.4 DSS | 0.7 DSS
14 | S=c1[nH]cnc2nc[nH]c12 [Mercaptopurine] | 0 DSS | 0 DSS | 5.4 DSS | 0.1 DSS | 0.3 DSS | 0 DSS
15 | CN1CCN(c2ccc(C(=O)Nc3n[nH]c4ccc(Cc5cc(F)cc(F)c5)cc34)c(NC3CCOCC3)c2)CC1 [Entrectinib] | 0 DSS | 4 DSS | 0 DSS | 2.1 DSS | 0.3 DSS | 1.4 DSS
16 | CC(O)(CS(=O)(=O)c1ccc(F)cc1)C(=O)Nc1ccc(C#N)c(C(F)(F)F)c1 (configuration not stated) [Bicalutamide] | 0.1 DSS | 0 DSS | 0 DSS | 0 DSS | 0 DSS | 0 DSS
17 | CNC(=O)c1cccc(-c2ccc3c(N4CCOC[C@@H]4C)nc(N4CCOC[C@@H]4C)nc3n2)c1 [Vistusertib] | 13.1 DSS | 7.6 DSS | 16.1 DSS | 10.6 DSS | 8.3 DSS | 7.5 DSS
18 | C=CC(=O)Nc1cc(Nc2nccc(-c3cn(C)c4ccccc34)n2)c(OC)cc1N(C)CCN(C)C [Osimertinib] | 6.8 DSS | 0.6 DSS | 3.7 DSS | 10.7 DSS | 6.8 DSS | 10.7 DSS
19 | COC(=O)c1ccc2c(c1)[nH]c1ncnc(NCCCN3CCCCC3)c12 [UM729] | 6.9 DSS | 1.1 DSS | 3.5 DSS | 1.1 DSS | 0 DSS | 4.1 DSS
20 | CCN1CCN(c2ccc(Nc3cc(N(C)C(=O)Nc4c(Cl)c(OC)cc(OC)c4Cl)ncn3)cc2)CC1 [Infigratinib] | 0 DSS | 0 DSS | 0 DSS | 0 DSS | 0 DSS | 0 DSS
21 | O=C(c1cc(Cc2n[nH]c(=O)c3ccccc23)ccc1F)N1CCN(C(=O)C2CC2)CC1 [Olaparib] | 12.5 DSS | 6.9 DSS | 9 DSS | 4.6 DSS | 7.3 DSS | 11.4 DSS
22 | Nc1nc(Cl)nc2c1ncn2[C@H]1C[C@H](O)[C@@H](CO)O1 [Cladribine] | 14.7 DSS | 20.7 DSS | 15.7 DSS | 5.2 DSS | 6.7 DSS | 1.4 DSS
23 | Cc1sc2c(c1C)C(c1ccc(Cl)cc1)=N[C@@H](CC(=O)Nc1ccc(O)cc1)c1nnc(C)n1-2 [Birabresib] | 19.5 DSS | 8.7 DSS | 15.6 DSS | 10.7 DSS | 13 DSS | 8.2 DSS
24 | COc1cc(Nc2ncc(F)c(Nc3ccc4c(n3)NC(=O)C(C)(C)O4)n2)cc(OC)c1OC [Tamatinib] | 0 DSS | 4.3 DSS | 0.9 DSS | 0.6 DSS | 3.7 DSS | 6 DSS
25 | O=C(CCNC(=O)c1ccc(OC(F)(F)F)cc1)N[C@@H]1CCCc2ccccc21 [ML390] | 8.5 DSS | 0 DSS | 8.1 DSS | 3.4 DSS | 2.9 DSS | 4 DSS
26 | CC1(C)NC(=O)N(c2ccc([N+](=O)[O-])c(C(F)(F)F)c2)C1=O [Nilutamide] | 0 DSS | 0 DSS | 0 DSS | 0 DSS | 3.2 DSS | 14.5 DSS
27 | CCC/C=C/C=C/C(=O)O[C@H]1/C(=C/C(=O)OC)C[C@H]2C[C@H]([C@@H](C)O)OC(=O)C[C@H](O)C[C@@H]3C[C@H](OC(C)=O)C(C)(C)[C@](O)(C[C@@H]4C/C(=C/C(=O)OC)C[C@H](/C=C/C(C)(C)[C@]1(O)O2)O4)O3 [Bryostatin 1] | 2.9 DSS | 0 DSS | 0 DSS | 0 DSS | 0 DSS | 6.4 DSS
